Activity calls are given as the source filed them.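 The calls were made as follows: active = compounds lowering nitrite signal whose fitted AC50 is at most ten times their top tested dose; inconclusive = flat drop of 30 to 70 percent, or poor curve fit; inactive = the rest.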
System: not listed separately
Assay: suppression of NO production in INS-1E cells – cell-based, Griess absorbance, dry powder, set 2, dose response (AID 488868)
Conditions: INS-1E cytokine-induced nitrite, Griess absorbance, 48 h; at 12 µM (top of the series)
For `C[C@@H]1CN([C@@H](C)CO)C(=O)c2cccc(NC(=O)Nc3cccc4ccccc34)c2O[C@H]1CN(C)C(=O)Nc1ccccc1`, the activity change, negative = inhibition was 11.5% (inactive).
With `Cc1ccc(S(=O)(=O)N(C)C[C@@H]2Oc3c(NC(=O)Nc4ccc(F)cc4)cccc3C(=O)N([C@H](C)CO)C[C@H]2C)cc1` the activity change, negative = inhibition was -0.835% (inactive).
With `C[C@@H]1CN([C@H](C)CO)C(=O)c2cccc(NC(=O)Nc3ccc(F)cc3)c2O[C@H]1CN(C)S(=O)(=O)c1ccc(Cl)cc1` the activity change, negative = inhibition was 1.53% (inactive).
In the case of `C[C@@H]1CN([C@@H](C)CO)C(=O)c2cccc(NC(=O)Nc3cccc4ccccc34)c2O[C@H]1CN(C)S(=O)(=O)c1ccc2c(n1)N(C)CCO2`, the activity change, negative = inhibition is reported as 1.75% (inactive).

Same assay, conditions: INS-1E cytokine-induced nitrite, Griess absorbance, 48 h; at 23.5 µM (top of the series)
With `COc1ccc(S(=O)(=O)N(C)C[C@@H]2Oc3c(NC(=O)C4CC4)cccc3C(=O)N([C@@H](C)CO)C[C@H]2C)cc1` the activity change, negative = inhibition was 1.94% (inactive).
With `COc1ccc(S(=O)(=O)N(C)C[C@@H]2Oc3c(NC(=O)Nc4ccc(F)cc4)cccc3C(=O)N([C@@H](C)CO)C[C@H]2C)cc1` the activity change, negative = inhibition was -9.52% (inactive).
In the case of `COc1ccc(S(=O)(=O)N(C)C[C@@H]2Oc3c(cccc3N(C)C)C(=O)N([C@@H](C)CO)C[C@H]2C)cc1`, the activity change, negative = inhibition is reported as -2.44% (inactive).
With `COc1ccc(S(=O)(=O)N(C)C[C@@H]2Oc3c(NC(=O)C4CCOCC4)cccc3C(=O)N([C@@H](C)CO)C[C@H]2C)cc1` the activity change, negative = inhibition was 3.17% (inactive).
For `COc1ccc(S(=O)(=O)N(C)C[C@@H]2Oc3c(NS(=O)(=O)c4ccc(C)cc4)cccc3C(=O)N([C@@H](C)CO)C[C@H]2C)cc1`, the activity change, negative = inhibition was -10.1% (inactive).

Same assay, conditions: INS-1E cytokine-induced nitrite, Griess absorbance, 48 h; at 26 µM (top of the series)
With `COc1ccc(S(=O)(=O)N(C)C[C@@H]2Oc3c(NC(=O)c4cnccn4)cccc3C(=O)N([C@@H](C)CO)C[C@H]2C)cc1` the activity change, negative = inhibition was 5.1% (inactive).
In the case of `COc1ccc(S(=O)(=O)N(C)C[C@@H]2Oc3c(NS(=O)(=O)c4cn(C)cn4)cccc3C(=O)N([C@@H](C)CO)C[C@H]2C)cc1`, the activity change, negative = inhibition is reported as 4.39% (inactive).
For `COc1ccc(S(=O)(=O)N(C)C[C@@H]2Oc3c(NC(=O)Nc4c(C)noc4C)cccc3C(=O)N([C@@H](C)CO)C[C@H]2C)cc1`, the activity change, negative = inhibition was -3.17% (inactive).
For `COc1ccc(S(=O)(=O)N(C)C[C@@H]2Oc3c(NS(=O)(=O)c4ccccc4)cccc3C(=O)N([C@@H](C)CO)C[C@H]2C)cc1`, the activity change, negative = inhibition was 0.0255% (inactive).
With `COc1ccc(S(=O)(=O)N(C)C[C@@H]2Oc3c(NC(=O)Nc4ccc(F)cc4)cccc3C(=O)N([C@H](C)CO)C[C@H]2C)cc1` the activity change, negative = inhibition was -19% (inactive).
In the case of `COc1ccc(S(=O)(=O)Nc2cccc3c2O[C@@H](CN(C)S(=O)(=O)c2ccc(OC)cc2)[C@H](C)CN([C@@H](C)CO)C3=O)cc1`, the activity change, negative = inhibition is reported as -6.55% (inactive).
In the case of `COc1ccc(NC(=O)Nc2cccc3c2O[C@@H](CN(C)S(=O)(=O)c2ccc(OC)cc2)[C@H](C)CN([C@@H](C)CO)C3=O)cc1`, the activity change, negative = inhibition is reported as -7.77% (inactive).
For `C[C@@H]1CN([C@@H](C)CO)C(=O)c2cccc(NC(=O)Nc3cccc4ccccc34)c2O[C@H]1CN(C)S(=O)(=O)c1cn(C)cn1`, the activity change, negative = inhibition was -2.87% (inactive).
For `C[C@@H]1CN([C@@H](C)CO)C(=O)c2cccc(NC(=O)Nc3cccc4ccccc34)c2O[C@H]1CN(C)S(=O)(=O)c1ccc2c(c1)OCCCO2`, the activity change, negative = inhibition was -19.2% (inactive).
For `COc1ccc(S(=O)(=O)N(C)C[C@@H]2Oc3c(NC(=O)Nc4cccc5ccccc45)cccc3C(=O)N([C@H](C)CO)C[C@@H]2C)cc1`, the activity change, negative = inhibition was -1.65% (inactive).
For `C[C@@H]1CN([C@@H](C)CO)C(=O)c2cccc(NC(=O)Nc3cccc4ccccc34)c2O[C@H]1CN(C)S(=O)(=O)c1ccc2c(c1)oc(=O)n2C`, the activity change, negative = inhibition was 4.7% (inactive).
In the case of `COc1ccc(S(=O)(=O)N(C)C[C@@H]2Oc3c(NC(=O)Nc4ccccc4)cccc3C(=O)N([C@@H](C)CO)C[C@H]2C)cc1`, the activity change, negative = inhibition is reported as -14.9% (inactive).
With `COc1ccc(S(=O)(=O)N(C)C[C@@H]2Oc3c(NS(=O)(=O)c4ccc(F)cc4)cccc3C(=O)N([C@@H](C)CO)C[C@H]2C)cc1` the activity change, negative = inhibition was -1.11% (inactive).
For `C[C@@H]1CN([C@@H](C)CO)C(=O)c2cccc(NC(=O)Nc3ccc(F)cc3)c2O[C@H]1CN(C)S(=O)(=O)c1ccc(F)cc1`, the activity change, negative = inhibition was -1.84% (inactive).
In the case of `C[C@@H]1CN([C@@H](C)CO)C(=O)c2cccc(NC(=O)Nc3cccc4ccccc34)c2O[C@H]1CN(C)S(=O)(=O)c1ccc2c(c1)OCC2`, the activity change, negative = inhibition is reported as -32.4% (inactive).
In the case of `COc1ccc(S(=O)(=O)N(C)C[C@@H]2Oc3c(NC(=O)Nc4cccc5ccccc45)cccc3C(=O)N([C@@H](C)CO)C[C@H]2C)cc1OC`, the activity change, negative = inhibition is reported as 2.18% (inactive).
For `COc1ccc(S(=O)(=O)N(C)C[C@@H]2Oc3c(NS(C)(=O)=O)cccc3C(=O)N([C@@H](C)CO)C[C@H]2C)cc1`, the activity change, negative = inhibition was -7.41% (inactive).
In the case of `C[C@@H]1CN([C@@H](C)CO)C(=O)c2cccc(NC(=O)Nc3cccc4ccccc34)c2O[C@H]1CN(C)S(=O)(=O)c1ccc2ncsc2c1`, the activity change, negative = inhibition is reported as -14.4% (inactive).
In the case of `COc1ccc(S(=O)(=O)N(C)C[C@@H]2Oc3c(NC(=O)NC(C)C)cccc3C(=O)N([C@@H](C)CO)C[C@H]2C)cc1`, the activity change, negative = inhibition is reported as 6.79% (inactive).
In the case of `COc1ccc(S(=O)(=O)N(C)C[C@@H]2Oc3c(NC(=O)Nc4ccc5c(c4)OCO5)cccc3C(=O)N([C@@H](C)CO)C[C@H]2C)cc1`, the activity change, negative = inhibition is reported as -14.3% (inactive).
With `C[C@@H]1CN([C@@H](C)CO)C(=O)c2cccc(NC(=O)Nc3ccccc3)c2O[C@H]1CN(C)S(=O)(=O)c1ccc(Cl)cc1` the activity change, negative = inhibition was -5.63% (inactive).
In the case of `COc1ccc(S(=O)(=O)N(C)C[C@@H]2Oc3c(NC(=O)Nc4ccc(C(F)(F)F)cc4)cccc3C(=O)N([C@@H](C)CO)C[C@H]2C)cc1`, the activity change, negative = inhibition is reported as -12% (inactive).
In the case of `COc1ccc(S(=O)(=O)N(C)C[C@@H]2Oc3c(NC(=O)Nc4cccc5ccccc45)cccc3C(=O)N(C(C)C)C[C@H]2C)cc1`, the activity change, negative = inhibition is reported as 12.7% (inactive).
For `C[C@@H]1CN([C@H](C)CO)C(=O)c2cccc(NC(=O)Nc3ccccc3)c2O[C@H]1CN(C)S(=O)(=O)c1ccc(F)cc1`, the activity change, negative = inhibition was -13.8% (inactive).
In the case of `COc1ccc(S(=O)(=O)N(C)C[C@@H]2Oc3c(NC(=O)Nc4cccc5ccccc45)cccc3C(=O)N([C@@H](C)CO)C[C@@H]2C)cc1`, the activity change, negative = inhibition is reported as -6.51% (inactive).
With `COc1ccc(S(=O)(=O)N(C)C[C@H]2Oc3c(NC(=O)Nc4cccc5ccccc45)cccc3C(=O)N([C@@H](C)CO)C[C@@H]2C)cc1` the activity change, negative = inhibition was -8.36% (inactive).
For `COc1ccc(S(=O)(=O)N(C)C[C@@H]2Oc3c(NS(=O)(=O)c4ccc(Cl)cc4)cccc3C(=O)N([C@@H](C)CO)C[C@H]2C)cc1`, the activity change, negative = inhibition was 4.24% (inactive).
For `COc1ccc(S(=O)(=O)N(C)C[C@@H]2Oc3c(NC(=O)c4ccncc4)cccc3C(=O)N([C@@H](C)CO)C[C@H]2C)cc1`, the activity change, negative = inhibition was 10% (inactive).
With `COc1ccc(S(=O)(=O)N(C)C[C@@H]2Oc3c(NC(=O)c4cc(C)nn4C)cccc3C(=O)N([C@@H](C)CO)C[C@H]2C)cc1` the activity change, negative = inhibition was -1.39% (inactive).
For `COc1ccc(S(=O)(=O)N(C)C[C@H]2Oc3c(NC(=O)Nc4cccc5ccccc45)cccc3C(=O)N([C@H](C)CO)C[C@@H]2C)cc1`, the activity change, negative = inhibition was -26.2% (inactive).
For `Cc1ccc(S(=O)(=O)N(C)C[C@@H]2Oc3c(NC(=O)Nc4ccccc4)cccc3C(=O)N([C@@H](C)CO)C[C@H]2C)cc1`, the activity change, negative = inhibition was -12.1% (inactive).
For `C[C@H]1CN([C@@H](C)CO)C(=O)c2cccc(NC(=O)NC3CCCCC3)c2O[C@@H]1CN(C)S(C)(=O)=O`, the activity change, negative = inhibition was -3.58% (inactive).
For `COc1ccc(S(=O)(=O)N(C)C[C@H]2Oc3c(NC(=O)Nc4cccc5ccccc45)cccc3C(=O)N([C@H](C)CO)C[C@H]2C)cc1`, the activity change, negative = inhibition was 0.786% (inactive).
For `COc1ccc(S(=O)(=O)N(C)C[C@@H]2Oc3c(NC(=O)c4ccc(-c5nccs5)cc4)cccc3C(=O)N([C@@H](C)CO)C[C@H]2C)cc1`, the activity change, negative = inhibition was -0.0778% (inactive).
With `C[C@@H]1CN([C@@H](C)CO)C(=O)c2cccc(NC(=O)Nc3cccc4ccccc34)c2O[C@H]1CN(C)S(C)(=O)=O` the activity change, negative = inhibition was 0.629% (inactive).
With `Cc1ccc(S(=O)(=O)N(C)C[C@@H]2Oc3c(NC(=O)Nc4ccccc4)cccc3C(=O)N([C@H](C)CO)C[C@H]2C)cc1` the activity change, negative = inhibition was -21% (inactive).
In the case of `COc1ccc(S(=O)(=O)N(C)C[C@@H]2Oc3c(NC(=O)C4CCCCC4)cccc3C(=O)N([C@@H](C)CO)C[C@H]2C)cc1`, the activity change, negative = inhibition is reported as 1.58% (inactive).
In the case of `C[C@@H]1CN([C@@H](C)CO)C(=O)c2cccc(NC(=O)Nc3ccccc3)c2O[C@H]1CN(C)S(=O)(=O)c1ccc(F)cc1`, the activity change, negative = inhibition is reported as -5.13% (inactive).

System: INS-1E cytokine-induced nitrite, Griess absorbance, 48 h
Assay: as above
Conditions: not given
With `COc1ccc(S(=O)(=O)N(C)C[C@@H]2Oc3c(NC(=O)Nc4ccccc4)cccc3C(=O)N([C@H](C)CO)C[C@H]2C)cc1` the AC50 was > 26 µM (inactive).
In the case of `C[C@@H]1CN([C@@H](C)CO)C(=O)c2cccc(NC(=O)Nc3cccc4ccccc34)c2O[C@H]1CN(C)S(=O)(=O)c1ccc2c(c1)OCCO2`, the AC50 is reported as > 26 µM (inactive).

From PubChem BioAssay AID488868 (Broad Institute, 2010)
